Values of other authors as cited in patent US20220193127A1, “IMMUNOTHERAPY FOR OPIOID ADDICTION” (Therapeutic Solutions International, Inc., priority 2020, published 2022).

Legend:
microglial cells = settings: for development of neuropathic pain: in vivo; for microglial activation / proinflammatory cytokines: neuropathic pain
[1] = test system: dentate gyrus of the hippocampus
[2] = rats fed for 6 weeks with liquid diet containing moderate doses of ethanol, vs paired controls

| SMILES | development of neuropathic pain (microglial cells) | microglial activation (microglial cells) | proinflammatory cytokines (microglial cells) | neurogenesis within the olfactory bulb ([1]; rat model of alcoholism) | decrease in the number of new neurons in the dentate gyrus [1, 2] | increase in cell death in the dentate gyrus [1, 2] |
| --- | --- | --- | --- | --- | --- | --- |
| CCCn1cnc2c1c(=O)n(CCCCC(C)=O)c(=O)n2C [propentofylline] | suppressing | decrease | inhibit |  |  |  |
| CCO [ethanol] |  |  |  | not affected | 66.3% | 227-279% |
| CC(=O)CCCCn1c(=O)c2c(ncn2C)n(C)c1=O [pentoxifylline] | suppressing | decrease | inhibit |  |  |  |
| O=C(O)CC(O)(C(=O)O)C(F)C(=O)O (stereo not drawn) [fluorocitrate] | suppressing | decrease | inhibit |  |  |  |
